How the values were obtained:
[1] = unformulated CAP; cited from earlier work
[2] = Particle size by dynamic light scattering (DLS)

Size of the particles formed by CAP ([2]; CAP in DI water, DLS): 2-30 nm | Stability of CAP micelles ([2]; high concentrations of CAP in DI water, size and correlation function fluctuate): not very stable
Compound: CCCCCOC(=O)Nc1nc(=O)n([C@@H]2O[C@H](C)[C@@H](O)[C@H]2O)cc1F [CAP, N4-pentyloxycarbonyl-5-deoxy-5-fluoro-cytidine]
Time within which the drug by itself is eliminated from the body [1]: 0.5 to 1 h

— patent US20190091162A1, “POLYMER-LIPID HYBRID NANOPARTICLES OF CAPECITABINE UTILIZING MICROMIXING AND CAPECITABINE AMPHIPHILIC PROPERTIES” (Jingjie PTM BioLab (Hangzhou) Co., Ltd., priority 2017, published 2019)
